Assays:
[1] = tested on: encephalitogenic lymphocytes; experiment: Spontaneous adhesion of encephalitogenic T cells on purified ICAM-1; type: cell-based, SJL mice; conditions: Mus musculus, Lymphocyte, 1 h
How it was run: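 Autoreactive T cells came from SJL mice immunized with PLP139-151. Cells were pretreated for 1 h with compound at 5-100 μM or DMSO vehicle, then tested for spontaneous adhesion to purified ICAM-1 or VCAM-1. Inhibition is given as percent of vehicle control (100%), mean ± S.D. of three-four experiments.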

[2] = tested on: NADPH-oxidase; experiment: Respiratory burst (H2O2 assay), NADPH-oxidase activation in monocytes; type: cell-based; conditions: PMA 200 ng/ml; 10, 50, 100 μM; FIG. 1b
Procedure: (§1) NADPH-oxidase activation was measured as induction of H2O2 release (derived from dismutation of O2^−) triggered in PMNs and monocytes by PMA (200 ng/ml). Briefly, PMNs and monocytes were pretreated at 37° C. for 30-60 min with test compound at different concentrations, and stimulated with phorbol 12-myristate 13-acetate (PMA, 200 ng/ml) dissolved in 0.5 ml of a standard reaction mixture. Release of H2O2 was evaluated in real time at time points of 5 min by using a microplate fluorescence reader (Perkin-Elmer). Results are expressed as nmoles of H2O2 released over time by 10^6 cells. Shown are dose-response curves of inhibitory effect on H2O2 release over 60 min.

[3] = tested on: encephalitogenic lymphocytes; experiment: Spontaneous adhesion of encephalitogenic T cells on purified VCAM-1; type: cell-based, SJL mice
Procedure: Spontaneous adhesion of encephalitogenic lymphocytes was measured in adhesion assays on purified ICAM-1 and VCAM-1 as previously described (Constantin G. et al., J. Immunol. 162, 1144-1149, 1999). Autoreactive T cells were obtained from SJL mice immunized with PLP139-151 as described (Piccio L. et al., J. Immunol. 168, 1940-1949, 2002). Lymphocytes were treated with test compound at concentrations between 5-100 μM for 1 h, while control/untreated cells were treated with vehicle (DMSO). Results are expressed as percentage of inhibition over control (=100%) ±S.D and are the mean of three-four experiments.
ICAM-1 and VCAM-1 are adhesion molecules from the family of immunoglobulins and control the migration of lymphocytes through the endothelium during inflammatory responses. Encephalitogenic T cells are activated lymphocytes displaying spontaneous adhesion on ICAM-1 and VCAM-1 and have increased migration capacities in inflammation sites. Spontaneous adhesion of encephalitogenic lymphocytes was measured in adhesion assays on purified ICAM-1 and VCAM-1 as described in the method.

[4] = tested on: encephalitogenic lymphocytes; experiment: Chemokine-induced adhesion of murine encephalitogenic T cells to ICAM-1; type: cell-based, SJL mice; conditions: for Chemokine-induced Adhesion in encephalitogenic lymphocytes, Mean counts ± S.D., in presence of MIP3-β stimulation: 1 μM CCL19 (MIP-3beta); for Chemokine-induced Adhesion in encephalitogenic lymphocytes, Mean counts ± S.D., in presence of MIP3-β stimulation / Adhesion in encephalitogenic lymphocytes, Mean counts ± S.D., in absence of MIP3-β stimulation: ICAM-1
How it was run: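 Murine PLP139-151-reactive T cells from immunized SJL mice were pretreated with compound (5-50 μM, 37° C., 30-60 min or 1 h), then stimulated with 1 μM CCL19 (2-3 min, static) on ICAM-1-coated glass. Bound cells counted after washing and fixation; values are mean counts ±S.D of three experiments.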

[5] = tested on: NADPH-oxidase; experiment: Respiratory burst (H2O2 assay), NADPH-oxidase activation in PMNs; type: cell-based; conditions: PMA 200 ng/ml; 10, 50, 100 μM; FIG. 1a
Procedure: as §1

COC(=O)c1[nH]c2cc(OC)c(OC)cc2c1-c1ccc(OC)cc1 [Example 1]
inhibition at 5 µM ([1]; [cpd] 5 μM, read-out: Inhibition of Spontaneous Adhesion in encephalitogenic lymphocytes (% of control/non-treated cells) ICAM-1): 47% | inhibition at 10 µM ([1]; [cpd] 10 μM, read-out: Inhibition of Spontaneous Adhesion in encephalitogenic lymphocytes (% of control/non-treated cells) ICAM-1 (converted)): 65% | inhibition at 25 µM ([1]; [cpd] 25 μM, read-out: Inhibition of Spontaneous Adhesion in encephalitogenic lymphocytes (% of control/non-treated cells) ICAM-1 (converted)): 70% | inhibition at 50 µM ([1]; [cpd] 50 μM, read-out: Inhibition of Spontaneous Adhesion in encephalitogenic lymphocytes (% of control/non-treated cells) ICAM-1 (converted)): 89% | inhibition at 100 µM ([1]; [cpd] 100 μM, read-out: Inhibition of Spontaneous Adhesion in encephalitogenic lymphocytes (% of control/non-treated cells) ICAM-1 (converted)): 96% | NADPH-oxidase activation (H2O2 release) in monocytes, in words [2]: inhibits NADPH-oxidase activation | Blocking spontaneous adhesion to VCAM-1, in words [3]: very efficient | inhibition at 5 µM ([3]; Mus musculus, Lymphocyte, [cpd] 5 μM, 1 h, read-out: Inhibition of Spontaneous Adhesion in encephalitogenic lymphocytes (% of control/non-treated cells) VCAM-1): 46% | inhibition at 10 µM ([3]; Mus musculus, Lymphocyte, [cpd] 10 μM, 1 h, read-out: Inhibition of Spontaneous Adhesion in encephalitogenic lymphocytes (% of control/non-treated cells) VCAM-1 (converted)): 66% | inhibition at 25 µM ([3]; Mus musculus, Lymphocyte, [cpd] 25 μM, 1 h, read-out: Inhibition of Spontaneous Adhesion in encephalitogenic lymphocytes (% of control/non-treated cells) VCAM-1 (converted)): 74% | inhibition at 50 µM ([3]; Mus musculus, Lymphocyte, [cpd] 50 μM, 1 h, read-out: Inhibition of Spontaneous Adhesion in encephalitogenic lymphocytes (% of control/non-treated cells) VCAM-1 (converted)): 92.4% | Block of chemokine-induced autoreactive lymphocyte adhesion, in words ([4]; 5-50 μM for 1 h, 1 μM CCL19): almost complete block | Chemokine-induced Adhesion in encephalitogenic lymphocytes, Mean counts ± S.D., in presence of MIP3-β stimulation ([4]; [cpd] 5 μM): 10.3 ± 1.0 | Adhesion in encephalitogenic lymphocytes, Mean counts ± S.D., in absence of MIP3-β stimulation ([4]; [cpd] 5 μM): 1.3 ± 1.0 | Chemokine-induced Adhesion in encephalitogenic lymphocytes, Mean counts ± S.D., in presence of MIP3-β stimulation ([4]; [cpd] 10 μM): 7.0 ± 1.0 | Adhesion in encephalitogenic lymphocytes, Mean counts ± S.D., in absence of MIP3-β stimulation ([4]; [cpd] 10 μM): 1.0 ± 1.0 | Chemokine-induced Adhesion in encephalitogenic lymphocytes, Mean counts ± S.D., in presence of MIP3-β stimulation ([4]; [cpd] 25 μM): 5.3 ± 2.0 | Adhesion in encephalitogenic lymphocytes, Mean counts ± S.D., in absence of MIP3-β stimulation ([4]; [cpd] 25 μM): 0.4 ± 0.2 | Chemokine-induced Adhesion in encephalitogenic lymphocytes, Mean counts ± S.D., in presence of MIP3-β stimulation ([4]; [cpd] 50 μM): 3.2 ± 1.0 | Adhesion in encephalitogenic lymphocytes, Mean counts ± S.D., in absence of MIP3-β stimulation ([4]; [cpd] 50 μM): 0.4 ± 0.1 | NADPH-oxidase activation (H2O2 release) in PMNs, in words [5]: inhibits NADPH-oxidase activation

From patent US20080226718A1, “Indole and Azaindole Derivatives For the Treatment of Inflammatory and Autoimmune Diseases” (Brane Discovery S.r.l, priority 2005, published 2008)
